The text below walks through data of US20230416329A1, “A PEPTIDE WITH DISULFIDE BONDS AND INHIBITORY ACTIVITY AGAINST SERINE PROTEASES, DERIVED HYBRID PEPTIDES THEREOF, AND USES THEREOF” (INSTITUTE OF MATERIA MEDICA , CHINESE ACADEMY OF MEDICAL …, priority 2020, published 2023).

This test concerns the target T1, bovine trypsin (Bos taurus, UniProt P00760).
T1 sequence (P00760 24-246): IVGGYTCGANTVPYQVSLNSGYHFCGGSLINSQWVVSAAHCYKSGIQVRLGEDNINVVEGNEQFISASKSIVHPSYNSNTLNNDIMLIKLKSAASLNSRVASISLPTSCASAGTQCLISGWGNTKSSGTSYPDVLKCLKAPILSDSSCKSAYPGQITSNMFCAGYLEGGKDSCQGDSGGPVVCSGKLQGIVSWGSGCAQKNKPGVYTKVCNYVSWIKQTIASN
The test can be described thus: Trypsin inhibitory activity of peptides (BApNA hydrolysis, OD405; IC50, Ki, residual activity). The format is biochemical. As to conditions: for Ki: Ki=IC50/(1+S/Km), Km 0.33 mM, read-out: Ki. In a few lines:
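Trypsin (50 nM final) preincubated with peptides at 37 °C in 50 mM Tris-HCl pH 7.8, 20 mM CaCl2; BApNA added (1.22 mM final), 260 min at 37 °C, then OD405 read. Residual activity from enzyme-only and substrate-only controls; IC50 fitted and converted to Ki via Ki=IC50/(1+S/Km), Km measured separately for BApNA.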

Where two headings read alike, the source gives them in different places. Bridge positions count the residues as written; N and C are the ends. Square brackets hold non-standard residues; d marks the D form. Peptide text beside a SMILES is read from it. Hyp = O=C(O)[C@@H]1C[C@@H](O)CN1; hCys = N[C@@H](CCS)C(=O)O; Nle = CCCC[C@H](N)C(=O)O

As for `CC[C@H](C)[C@@H]1NC(=O)[C@@H]2CCCN2C(=O)[C@@H]2CCCN2C(=O)[C@H]([C@@H](C)CC)NC(=O)[C@H](CO)NC(=O)[C@H](CCCCN)NC(=O)[C@H]([C@@H](C)O)NC(=O)[C@H](C)NC(=O)[C@H](CCCNC(=N)N)NC(=O)CNC(=O)[C@@H](N)CSSC[C@@H](C(=O)O)NC(=O)[C@H](Cc2ccccc2)NC(=O)[C@H](C)NC1=O` [BT11] (H-CGRATKSIPPIAFC-OH; disulfide 1-14; N-terminus and C-terminus assumed), the “inhibitory activity against trypsin (in words)” value (“inhibitory activity” below) is reported as “still maintained good inhibitory activity against trypsin”. The Residual trypsin activity (peptide 0.488 μM) came out at 100.2 ± 3.7%. The Residual trypsin activity (peptide 0.7317 μM) stood at 102.4 ± 4.2%. The Residual trypsin activity (peptide 0.98 μM) was 101.5 ± 5.1%. For the same molecule, under “peptide 1.561 μM”, the Residual trypsin activity was determined as 79.3 ± 1.0%. Besides, under “peptide 1.95 μM”, the Residual trypsin activity came to 75.8 ± 4.6%. Also, the Residual trypsin activity (peptide 2.93 μM) is given as 6.2 ± 3.1%. In addition, the Residual trypsin activity (peptide 3.90 μM) turned out to be 4.1 ± 1.0%. Moreover, the Residual trypsin activity (peptide 4.88 μM) stood at 1.4 ± 0.3%.
As a reminder, the Ki is a dissociation constant, usually derived from enzyme kinetics or from competition with a known ligand. The term IC50 denotes the midpoint of a concentration-inhibition curve. Consider `CC[C@H](C)[C@@H]1NC(=O)[C@@H]2CCCN2C(=O)[C@@H]2CCCN2C(=O)[C@H]([C@@H](C)CC)NC(=O)[C@H](CO)NC(=O)[C@H](CCCCN)NC(=O)[C@H]([C@@H](C)O)NC(=O)[C@H](C)NC(=O)[C@H](CCCNC(=N)N)NC(=O)[C@@H]2CCCN2C(=O)[C@@H](N)CSSC[C@@H](C(=O)N[C@@H](Cc2ccccc2)C(=O)O)NC1=O` [BT66] (H-CPRATKSIPPICF-OH; disulfide 1-12; C-terminus assumed), for which the “inhibitory activity” value was “higher trypsin inhibitory activities” and the Ki is 0.01 µM. Also, the “inhibitory activity” value (listed as SEQ ID NO: 66) is given as “excellent trypsin inhibitory activities”. Also, the Residual trypsin activity (peptide 0.000098 μM) is reported as 107.0 ± 6.2%. Besides, the Residual trypsin activity (peptide 0.00098 μM) was 104.7 ± 2.1%. For the same molecule, under “peptide 0.0098 μM”, the Residual trypsin activity is given as 106.2 ± 3.4%. Under “peptide 0.0488 μM”, the Residual trypsin activity stood at 66.8 ± 8.2%. Also, the Residual trypsin activity (peptide 0.0585 μM) was 55.7 ± 2.4%. For the setting “peptide 0.0780 μM”, the Residual trypsin activity is 13.9 ± 4.2%. Moreover, the Residual trypsin activity (peptide 0.098 μM) is reported as 4.8 ± 0.7%. Also, the Residual trypsin activity (peptide 0.98 μM) was found to be 0.1 ± 0.0%. Also, the Residual trypsin activity (peptide 9.76 μM) worked out at 0.1 ± 0.0%. Moreover, the IC50 (trypsin 50 nM, BApNA 1.22 mM, read-out: IC50) amounted to 0.06 µM.
As for `CC[C@H](C)[C@@H]1NC(=O)[C@@H]2C[C@@H](O)CN2C(=O)[C@@H]2CCCN2C(=O)[C@H]([C@@H](C)CC)NC(=O)[C@H](CO)NC(=O)[C@H](CCCCN)NC(=O)[C@H]([C@@H](C)O)NC(=O)[C@H](C)NC(=O)[C@H](CCCNC(=N)N)NC(=O)[C@H](C)NC(=O)[C@@H](N)CSSC[C@@H](C(=O)N[C@@H](Cc2ccccc2)C(=O)O)NC1=O` [BT70] (H-CARATKSIP[Hyp]ICF-OH; disulfide 1-12; C-terminus assumed), the “inhibitory activity” value was “excellent trypsin inhibitory activities” and the Ki was found to be 0.03 µM.
Consider `CCCC[C@@H]1NC(=O)[C@@H](N)CSSC[C@@H](C(=O)N[C@@H](Cc2ccccc2)C(=O)O)NC(=O)[C@H]([C@@H](C)CC)NC(=O)[C@@H]2CCCN2C(=O)[C@@H]2CCCN2C(=O)[C@H]([C@@H](C)CC)NC(=O)[C@H](CO)NC(=O)[C@H](CCCCN)NC(=O)[C@H]([C@@H](C)O)NC(=O)[C@H](C)NC(=O)[C@H](CCCNC(=N)N)NC1=O` [BT80] (H-C[Nle]RATKSIPPICF-OH; disulfide 1-12; N-terminus and C-terminus assumed), for which the Ki came to 0.02 µM.
With `CC[C@H](C)[C@@H]1NC(=O)[C@@H]2CCCN2C(=O)[C@@H]2CCCN2C(=O)[C@H]([C@@H](C)CC)NC(=O)[C@H](CO)NC(=O)[C@H](CCCCN)NC(=O)[C@H]([C@@H](C)O)NC(=O)[C@H](C)NC(=O)[C@H](CCCNC(=N)N)NC(=O)CNC(=O)[C@@H](N)CCSSCC[C@@H](C(=O)O)NC(=O)[C@H](Cc2ccccc2)NC(=O)[C@H](C)NC1=O` [BT29] (H-[hCys]GRATKSIPPIAF[hCys]-OH; disulfide 1-14; N-terminus assumed), the “inhibitory activity” value was “still maintained good inhibitory activity against trypsin”.
